Data on four compounds can be found in US9115093B2, “Substituted bicyclic dihydropyrimidinones and their use as inhibitors of neutrophil elastase activity” (Boehringer Ingelheim International GmbH, priority 2013, dated 2015).

In brackets after ≈: the same amount, converted by molar mass.

A short description of series [1]: Metabolic stability with human liver microsomes. The format is in vitro ADME. Conditions: pooled human liver microsomes, 37° C., 1 mg/ml protein, NADPH; for half-life at 1 nM: pH 7.6, read-out: t1/2 INVITRO. As to the method: Assay for the Determination of Metabolic Stability with Human Liver Microsomes
The metabolic degradation of the test compound is assayed at 37° C. with pooled human liver microsomes. The final incubation volume of […] per time point contains TRIS buffer pH 7.6 (0.1 M), magnesium chloride (5 mM), microsomal protein (1 mg/ml) and the test compound at a final concentration of […]. Following a short preincubation period at 37° C., the reactions are initiated by addition of beta-nicotinamide adenine dinucleotide phosphate, reduced form (NADPH, 1 mM) and terminated by transfering an aliquot into acetonitrile after different time points. Additionally, the NADPH-independent degradation is monitored in incubations without NADPH, terminated at the last time point. The rol remaining test compound after NADPH independent incubation is reflected by the parameter c(control) (metabolic stability). The quenched incubations are pelleted by centrifugation (10′000 g, 5 min) An aliquot of the supernatant is assayed by LC-MS/MS for the amount of parent compound.
The half-life (t1/2 INVITRO) is determined by the slope of the semilogarithmic plot of the concentration-time profile. The intrinsic clearance (CL_[…]) is calculated by considering the amount of protein in the incubation: CL_[…][μl/min/mg protein]=(ln 2/(half-life [min]*protein content [mg/ml]))*1′000.
The half-life (t1/2 INVITRO) values of selected compounds in the metabolic stability assay described above are listed in Table 15.
(Liver microsomes are a subcellular fraction often used to study metabolism.)

The nature of the next series: Aqueous solubility. The format is physicochemical. The note with it: McIlvaine buffer pH 6.8, 2.5% DMSO, 24 h shaking; for solubility at 24 h: McIlvaine buffer with 2.5% DMSO. The protocol:
Assay for Determination of Aqueous Solubility
The aqueous solubility of a compound is determined by comparing the amount dissolved in aqueous buffer (containing 2.5% DMSO) to the amount dissolved in an acetonitrile/water (1/1) solution. Starting from a 10 mM DMSO stock solution, aliquots are diluted with acetonitrile/water (1/1) and Mcllvaine buffer pH 6.8, respectively. After 24 h of shaking, the solutions or suspensions are filtered and analyzed by LC-UV. The amount dissolved in buffer is compared to the amount dissolved in the acetonitrile/water (1/1) solution. Solubility is measured from 0.001 to 0.125 mg/ml at a DMSO concentration of 2.5%. If more than 90% of the compound is dissolved in buffer, the value is marked with “>”.

The target of the next series is T1, neutrophil elastase (Homo sapiens, UniProt P08246).
T1 sequence (P08246 30-247 limits assumed): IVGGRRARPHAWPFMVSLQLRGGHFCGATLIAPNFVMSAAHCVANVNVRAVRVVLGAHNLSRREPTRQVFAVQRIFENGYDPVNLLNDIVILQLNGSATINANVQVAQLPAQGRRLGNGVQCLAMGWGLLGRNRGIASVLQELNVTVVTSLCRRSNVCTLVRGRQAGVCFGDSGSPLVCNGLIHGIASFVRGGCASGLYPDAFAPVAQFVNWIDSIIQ
The series is described as follows: Neutrophil elastase inhibitory activity in human plasma. The format is biochemical. Set-up: The stimulated blood is centrifuged to generate the neutrophil elastase enriched plasma; from tissue; host or cells: plasma from zymosan-stimulated citrated whole blood of healthy human donors. Conditions: neutrophil elastase enriched human plasma (zymosan-stimulated blood), substrate MeOSuc-Ala-Ala-Pro-Val-AMC. The protocol: Assay for the Determination of Neutrophil Elastase Inhibitory Activity in Human Plasma
Citrated blood from human healthy donors is mixed with zymosan suspension and incubated at room temperature. This leads to the stimulation of neutrophils and the release of neutrophil elastase into the plasma. The stimulated blood is centrifuged to generate the neutrophil elastase enriched plasma.
Preparation of Zymosan Working Solution:
• single 45 ml blood sample is taken into a 50 ml tube containing citrate (3.13%, 5 mL) and the tube is gently inverted 4 times. • Immediately after blood sampling, zymosan working solution (5 mL) is added. • After the addition of zymosan working solution, the tubes are capped, mixed gently and incubated at 22° C. for 15 min on a shaker at 20 rpm. • Make 10 ml aliquots after the incubation time. • Centrifuge the 15 ml tubes at 800 g for […] at 4° C. in a Jouan centrifuge. • Harvest the plasma and make 1-5 ml aliquots. • Store the plasma at −80° C.
Various concentrations of the neutrophil elastase inhibitor are incubated with plasma. Subsequently, the enzyme activity is measured using the fluorogenic substrate MeOSuc-Ala-Ala-Pro-Val-AMC (Bachem Cat. No. 1-1270, substrate concentration: 250 μM, pH 7.5, 25 mM TRIS buffer, 250 mM NaCl) in analogous fashion as described for the human neutrophil assay. A dose response curve is generated to calculate the EC50 of the inhibitor. The analysis of the data is performed by the calculation of the percentage of fluorescence in the presence of the test compound compared to the fluorescence of the vehicle control after subtracting the background fluorescence: An inhibitor of the neutrophil elastase enzyme will give values between 100% control (no inhibition) and 0% control (complete inhibition). The human plasma shift of selected compounds can be calculated using the following equation: Human plasma shift=(EC50 in human plasma assay)/(IC50 in human neutrophil elastase assay) The EC50 values of selected compounds in the human plasma assay described above are listed in Table 14.

One may read the Aqueous solubility as the dissolved amount per volume that the medium holds. Higher therefore signals much dissolved substance. As usually defined, the EC50 is the midpoint of the concentration-response curve. As to `CS(=O)(=O)c1cc(C#N)ccc1[C@@H]1C2=C(CCCC2=O)N(c2cccc(C(F)(F)F)c2)C(=O)N1C(=O)NCC(F)F` [Example 75.7], the “t1/2 INVITRO” value in series [1] was greater than 2.17 h. The compound also showed an Aqueous solubility in the series “Aqueous solubility” of 5 µg/mL. At neutrophil elastase, this compound had an EC50 of 1 nM.
The term solubility denotes the dissolved amount per volume that the medium holds. Turning to `CS(=O)(=O)CCNC(=O)N1C(=O)N(c2cccc(C(F)(F)F)c2)C2=C(C(=O)CCC2)C1c1ccc(C#N)cc1` (stereo not drawn) [Example 39.19], the half-life at 1 nM in series [1] was greater than 2.17 h. Also, the solubility at 24 h in the series “Aqueous solubility” was 9 µg/mL (≈ 16.1 µM). This compound gave an EC50 on neutrophil elastase of 9 nM.
For `CC(C)NC(=O)N1C(=O)N(c2cccc(C(F)(F)F)c2)C2=C(C(=O)CCC2)[C@H]1c1ccc(C#N)cc1S(C)(=O)=O` [Example 75.3], the “t1/2 INVITRO” value in series [1] was greater than 2.17 h. The compound further had an Aqueous solubility in the series “Aqueous solubility” of 9 µg/mL. Moreover, at neutrophil elastase, the EC50 amounted to 1 nM.
As to `N#Cc1ccc(C2C3=C(CCCC3=O)N(c3cccc(C(F)(F)F)c3)C(=O)N2C(=O)NCCO)cc1` (stereo not drawn) [Example 39.3], the half-life at 1 nM in series [1] was greater than 2.17 h. In “Aqueous solubility”, this compound displayed a solubility at 24 h of 6 µg/mL (≈ 12 µM). Moreover, the response on neutrophil elastase was half-maximal at 6 nM (EC50).
